Patent US20260217711A1, “TRIAZOLOPYRIDINYL ETHER LINKED COMPOUNDS AS KINASE INHIBITORS” (Bristol-Myers Squibb Company, priority 2023, published 2026)

Test system: MLKL phosphorylation (pMLKL) in HT29-L23 cells
Test: MLKL Phosphorylation High-Content Assay
Format: cell-based
Settings: Homo sapiens, 6 h, necroptosis induced with human TNFα, SMAC mimetic and Z-VAD, read-out: LE pMLKL HC IC50
Experimental: Following 6 h incubation at 37° C. […] MLKL phosphorylation was detected using anti-MLKL (phospho […]) antibody (Abcam #ab187091) (1:1000 dilution in Blocking Buffer [PBS supplemented with 0.1% BSA]) with ON incubation at 4° C. […] Following another three cycles of washes in PBS, the microplates were sealed, and cellular images were acquired in the Cellomics ArrayScan VTI high-content imager equipped with an X1 camera. […] The image sets were analyzed using the Compartmental Analysis Bioapplication software (Cellomics). The level of MLKL phosphorylation was quantified as […].

| Compound | IC50 |
| --- | --- |
| CC(O)(c1ccccc1)C(F)(F)CCOc1cccc(-c2ccn3nc(N)nc3c2)c1F (single isomer, unassigned) [Example 68, 5-(3-(2-amino-[1,2,4]triazolo[1,5-a]pyridin-7-yl)-2-fluorophenoxy)-3,3-difluoro-2-phenylpentan-2-ol] | 0.1 nM |
| Nc1nc2cc(-c3cccc(OCCC(F)(F)C(O)c4ccc(F)cc4)c3F)ccn2n1 (single isomer, unassigned) [Example 71, 4-(3-(2-amino-[1,2,4]triazolo[1,5-a]pyridin-7-yl)-2-fluorophenoxy)-2,2-difluoro-1-(4-fluorophenyl)butan-1-ol] | 0.6 nM |

Same assay, conditions: necroptosis induced with human TNFα, SMAC mimetic and Z-VAD, 6 h, read-out: LE pMLKL HC IC50

| Compound | IC50 |
| --- | --- |
| Nc1nc2cc(-c3ccc(F)c(OCCC(F)(F)C(O)c4ccc(F)cc4)c3)ccn2n1 (single isomer, unassigned) [Example 53, 4-(5-(2-amino-[1,2,4]triazolo[1,5-a]pyridin-7-yl)-2-fluorophenoxy)-2,2-difluoro-1-(4-fluorophenyl)butan-1-ol] | 1.5 nM |
| Nc1nc2cc(-c3ccc(F)c(OCCC(F)(F)C(O)c4ccc(F)cc4)c3)ccn2n1 (single isomer, unassigned) [Example 54, 4-(5-(2-amino-[1,2,4]triazolo[1,5-a]pyridin-7-yl)-2-fluorophenoxy)-2,2-difluoro-1-(4-fluorophenyl)butan-1-ol] | 32 nM |
| Nc1nc2cc(-c3ccc(F)c(OCCC(F)(F)C(O)c4ccc(F)cc4)c3F)ccn2n1 (single isomer, unassigned) [Example 55, 4-(3-(2-amino-[1,2,4]triazolo[1,5-a]pyridin-7-yl)-2,6-difluorophenoxy)-2,2-difluoro-1-(4-fluorophenyl)butan-1-ol] | 0.3 nM |
| Nc1nc2cc(-c3ccc(F)c(OCCC(F)(F)C(O)c4ccc(F)cc4)c3F)ccn2n1 (single isomer, unassigned) [Example 56, 4-(3-(2-amino-[1,2,4]triazolo[1,5-a]pyridin-7-yl)-2,6-difluorophenoxy)-2,2-difluoro-1-(4-fluorophenyl)butan-1-ol] | 4 nM |
| CC(O)(c1ccc(F)cc1)C(F)(F)CCOc1cc(-c2ccn3nc(N)nc3c2)ccc1F (single isomer, unassigned) [Example 57, 5-(5-(2-amino-[1,2,4]triazolo[1,5-a]pyridin-7-yl)-2-fluorophenoxy)-3,3-difluoro-2-(4-fluorophenyl)pentan-2-ol] | 130 nM |
| CC(O)(c1ccc(F)cc1)C(F)(F)CCOc1cc(-c2ccn3nc(N)nc3c2)ccc1F (single isomer, unassigned) [Example 58, 5-(5-(2-amino-[1,2,4]triazolo[1,5-a]pyridin-7-yl)-2-fluorophenoxy)-3,3-difluoro-2-(4-fluorophenyl)pentan-2-ol] | 5 nM |
| Nc1nc2cc(-c3ccc(Cl)c(OCCC(F)(F)C(O)c4ccc(F)cc4)c3F)ccn2n1 (single isomer, unassigned) [Example 59, 4-(3-(2-amino-[1,2,4]triazolo[1,5-a]pyridin-7-yl)-6-chloro-2-fluorophenoxy)-2,2-difluoro-1-(4-fluorophenyl)butan-1-ol] | 2 nM |
| Nc1nc2cc(-c3ccc(Cl)c(OCCC(F)(F)C(O)c4ccc(F)cc4)c3F)ccn2n1 (single isomer, unassigned) [Example 60, 4-(3-(2-amino-[1,2,4]triazolo[1,5-a]pyridin-7-yl)-6-chloro-2-fluorophenoxy)-2,2-difluoro-1-(4-fluorophenyl)butan-1-ol] | 5 nM |
| Nc1nc2cc(-c3cccc(OCCC(F)(F)C(N)c4ccc(F)cc4)c3F)ccn2n1 (single isomer, unassigned) [Example 61, 7-(3-(4-amino-3,3-difluoro-4-(4-fluorophenyl)butoxy)-2-fluorophenyl)-[1,2,4]triazolo[1,5-a]pyridin-2-amine] | 0.6 nM |
| Nc1nc2cc(-c3cccc(OCCC(F)(F)C(N)c4ccc(F)cc4)c3F)ccn2n1 (single isomer, unassigned) [Example 62, 7-(3-(4-amino-3,3-difluoro-4-(4-fluorophenyl)butoxy)-2-fluorophenyl)-[1,2,4]triazolo[1,5-a]pyridin-2-amine] | 6 nM |
| Cc1ccc(-c2ccn3nc(N)nc3c2)c(F)c1OCCC(F)(F)C(C)(O)c1ccc(F)cc1 (single isomer, unassigned) [Example 63, 5-(3-(2-amino-[1,2,4]triazolo[1,5-a]pyridin-7-yl)-2-fluoro-6-methylphenoxy)-3,3-difluoro-2-(4-fluorophenyl)pentan-2-ol] | 8 nM |
| Cc1ccc(-c2ccn3nc(N)nc3c2)c(F)c1OCCC(F)(F)C(C)(O)c1ccc(F)cc1 (single isomer, unassigned) [Example 64, 5-(3-(2-amino-[1,2,4]triazolo[1,5-a]pyridin-7-yl)-2-fluoro-6-methylphenoxy)-3,3-difluoro-2-(4-fluorophenyl)pentan-2-ol] | 0.1 nM |
| CC(O)(c1ccccc1)C(F)(F)CCOc1cccc(-c2ccn3nc(N)nc3c2)c1F (single isomer, unassigned) [Example 67, 5-(3-(2-amino-[1,2,4]triazolo[1,5-a]pyridin-7-yl)-2-fluorophenoxy)-3,3-difluoro-2-phenylpentan-2-ol] | 4 nM |
| Nc1nc2cc(-c3cccc(OCCC(F)(F)C(O)c4ccc(F)cc4)c3F)ccn2n1 (single isomer, unassigned) [Example 72, 4-(3-(2-amino-[1,2,4]triazolo[1,5-a]pyridin-7-yl)-2-fluorophenoxy)-2,2-difluoro-1-(4-fluorophenyl)butan-1-ol] | 1 nM |
| CC(O)(c1ccc(F)cc1)C(F)(F)CCOc1c(F)ccc(-c2ccc3nc(N)nn3c2)c1F (single isomer, unassigned) [Example 75, 5-(3-(2-amino-[1,2,4]triazolo[1,5-a]pyridin-6-yl)-2,6-difluorophenoxy)-3,3-difluoro-2-(4-fluorophenyl)pentan-2-ol] | 200 nM |
| CC(O)(c1ccc(F)cc1)C(F)(F)CCOc1c(F)ccc(-c2ccc3nc(N)nn3c2)c1F (single isomer, unassigned) [Example 76, 5-(3-(2-amino-[1,2,4]triazolo[1,5-a]pyridin-6-yl)-2,6-difluorophenoxy)-3,3-difluoro-2-(4-fluorophenyl)pentan-2-ol] | 2 nM |
| CC(O)(c1ccc(F)cc1)C(F)(F)CCOc1ccc(F)c(-c2ccn3nc(N)nc3c2)n1 (single isomer, unassigned) [Example 77, 5-((6-(2-amino-[1,2,4]triazolo[1,5-a]pyridin-7-yl)-5-fluoropyridin-2-yl)oxy)-3,3-difluoro-2-(4-fluorophenyl)pentan-2-ol] | 430 nM |
| CC(O)(c1ccc(F)cc1)C(F)(F)CCOc1ccc(F)c(-c2ccn3nc(N)nc3c2)n1 (single isomer, unassigned) [Example 78, 5-((6-(2-amino-[1,2,4]triazolo[1,5-a]pyridin-7-yl)-5-fluoropyridin-2-yl)oxy)-3,3-difluoro-2-(4-fluorophenyl)pentan-2-ol] | 13 nM |
| CC(O)(c1ccc(F)cc1)C(F)(F)CCOc1ccc(Cl)c(-c2ccn3nc(N)nc3c2)n1 (single isomer, unassigned) [Example 79, 5-((6-(2-amino-[1,2,4]triazolo[1,5-a]pyridin-7-yl)-5-chloropyridin-2-yl)oxy)-3,3-difluoro-2-(4-fluorophenyl)pentan-2-ol] | 160 nM |
